Experiments:
Format in all cases: cell-based
[1] = system: HUMAN RSV-A (“LONG” STRAIN); test: RSV-A assay (CPE, ATPlite) in Hep-2 cells; settings: human respiratory syncytial virus, 120 h, MOI 0.1, 5-day incubation
In short: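 Protection from RSV cytopathic effect read by ATP luminescence (ATPlite) after 5-day culture. Genotype A "Long" virus added at MOI 0.1 to Hep-2 monolayers at 8,000 cells/well, pre-dosed with duplicate 2-fold compound dilutions; controls include infected untreated and uninfected wells. EC50 values binned into ranges.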

hMPV A2 TN/94-49 [2] = test: HMPV antiviral assay Method 1 (LLC-MK2 cells, ATP-Lite); settings: hMPV A2 TN/94-49, LLC-MK2 cells
In short: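 LLC-MK2 cells infected in suspension with hMPV A2 TN/94-49 at MOI 0.005, 5,000 cells/well, in serum-free OptiMEM with 2 μg/mL TPCK-trypsin (final) and CaCl2; compounds in duplicate, 10 points, 2 μM top, 2.5-fold dilutions. After 7 days at 37 °C, cell health by ATP-Lite luminescence; EC50 by four-parameter fit.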

hMPV A2 TN/94-49 [3] = test: HMPV antiviral assay Method 2 (LLC-MK2 cells with CP-100-356, ATP-Lite); settings: hMPV A2 TN/94-49, LLC-MK2 cells, 4 μM CP-100-356, Method 2
In short: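 The protective effect was measured after 7 days at 37 °C by ATP-Lite luminescence and expressed as % cell health relative to virus-only and cells-only wells, with EC50 from a four-parameter logistic. Cells were LLC-MK2 infected with strain A2 TN/94-49 (MOI 0.16) with final 2 μM CP-100-356 and 2 μg/mL TPCK-trypsin; 10 duplicate concentrations from 200 nM, 2.5-fold steps.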

| SMILES | EC50 [1] [nM] | EC50 (hMPV A2 TN/94-49 [2]) [nM] | EC50 (hMPV A2 TN/94-49 [3]) [nM] |
| --- | --- | --- | --- |
| COc1cc(C(=O)NC[C@@](O)(c2ccccc2)c2cc3c(c(-c4cc(C(F)(F)F)ccc4F)n2)OC[C@]3(C)C(N)=O)cc2cn(C3CC3)nc12 [Example 147] | < 200 | < 500 | < 200 |
| COc1cc(C(=O)NC[C@@](O)(c2cccc(F)c2)c2cc3c(c(-c4ccc(F)c(Cl)c4Cl)n2)OC[C@]3(C)C(N)=O)cc2cn(C3CC3)nc12 [Example 268] | < 200 | < 500 | < 200 |
| C[C@]1(C(N)=O)COc2c1cc([C@@](O)(CNC(=O)c1cc(OC3CC3)c3nn(C(F)F)cc3c1)C1CC(F)(F)C1)nc2-c1cc(F)c(F)cc1F [Example 34] | < 200 | < 500 | < 200 |
| C[C@]1(C(N)=O)COc2c1cc([C@@](O)(CNC(=O)c1cc(OC3CC3)c3nc(C4CC4)sc3c1)C1CC1)nc2-c1cc(Cl)c(F)cc1F [Example 3] | < 200 | < 500 | < 200 |
| COc1cc(C(=O)NC[C@@](O)(c2cccc(F)c2)c2cc3c(c(-c4ccc(F)c(Cl)c4Cl)n2)OC[C@]3(C)C(N)=O)cc2cn(C3(F)CC3)nc12 [Example 269] | < 200 | < 500 | < 200 |
| COc1cc(C(=O)NCC(O)(c2cc3c(c(-c4cc(Cl)c(F)cc4F)n2)OC[C@]3(C)C(N)=O)c2cc(C(F)F)cs2)cc2cn(C3CC3)nc12 (stereo partly drawn) [Example 468] | < 200 | > 500 | < 200 |
| C[C@]1(C(N)=O)COc2c1cc([C@@](O)(CNC(=O)c1cc(OC3CC3)c3nn(C4(F)CC4)cc3c1)c1ccccc1)nc2-c1cccc(Cl)c1Cl [Example 266] | < 200 | < 500 | < 200 |
| COc1cc(C(=O)NC[C@@](O)(c2ccccc2)c2cc3c(c(-c4ccc(F)c(Cl)c4Cl)n2)OC[C@]3(C)C(N)=O)cc2cc(Cl)cnc12 [Example 294] | < 200 | < 500 | < 200 |
| COc1cc(C(=O)NC[C@](O)(c2cc3c(c(-c4ccc(F)c(F)c4C)n2)OC[C@]3(C)C(N)=O)C2CC2)cc2cn(C3CC3)nc12 [Example 70] | < 200 | < 500 | < 200 |
| C[C@]1(C(N)=O)COc2c1cc([C@@](O)(CNC(=O)c1cc(OCCO)c3nn(C4CC4)cc3c1)C1CC1)nc2-c1ccc(F)c(Cl)c1F [Example 37] | < 200 | > 500 | < 200 |
| COc1cc(C(=O)NC[C@@](O)(c2ccccc2)c2cc3c(c(-c4ccc5c(c4)OC(F)(F)O5)n2)OC[C@]3(C)C(N)=O)cc2cn(C3CC3)nc12 [Example 18] | < 200 | < 500 | < 200 |
| [2H]C([2H])([2H])c1nc2ccc(C(=O)NC[C@@](O)(c3cccc(F)c3)c3cc4c(c(-c5ccc6c(c5Cl)OC(F)(F)O6)n3)OC[C@]4(C)C(N)=O)cc2o1 [Example 282] | < 200 | < 500 | < 200 |
| COc1cc(C(=O)NC[C@](O)(c2cc3c(c(-c4cc(Cl)c(F)cc4F)n2)OC[C@]3(C)C(N)=O)c2cccs2)cc2cn(C3CC3)nc12 [Example 474] | < 200 | < 500 | < 200 |
| COc1cc(C(=O)NC[C@@](O)(c2cccc(F)c2)c2cc3c(c(-c4cccc(Cl)c4Cl)n2)OC[C@]3(C)C(N)=O)cc2cn(C3(F)CC3)nc12 [Example 291] | < 200 | < 500 | < 200 |
| COc1cc(C(=O)NC[C@@](O)(c2ccccn2)c2cc3c(c(-c4cc(Cl)c(F)cc4F)n2)OC[C@]3(C)C(N)=O)cc2cn(C3CC3)nc12 [Example 463] | < 200 | < 500 | < 200 |
| COc1cc(C(=O)NC[C@@](O)(c2ccccc2)c2cc3c(c(-c4cc(C(F)F)c(F)cc4F)n2)OC[C@]3(C)C(N)=O)cc2cn(C3(F)CC3)nc12 [Example 298] | < 200 | < 500 | < 200 |
| CCc1cc(-c2nc([C@@](O)(CNC(=O)c3cc(OC)c4nn(C5CC5)cc4c3)C3CC3)cc3c2OC[C@]3(C)C(N)=O)ccc1F [Example 71] | < 200 | > 500 | > 200 |
| COc1ccc([C@](O)(CNC(=O)c2cc(OC)c3nn(C4(F)CC4)cc3c2)c2cc3c(c(-c4cc(Cl)c(F)cc4F)n2)OC[C@]3(C)C(N)=O)cc1 [Example 166] | < 200 | < 500 | < 200 |
| C[C@]1(C(N)=O)COc2c1cc([C@@](O)(CNC(=O)c1cc(OC3CC3)c3nn(C4(F)CC4)cc3c1)C1CC1)nc2-c1cc(Cl)c(F)cc1F [Example 5] | < 200 | < 500 | < 200 |
| [2H]C([2H])([2H])c1nc2ccc(C(=O)NC[C@@](O)(c3cccc(F)c3)c3cc4c(c(-c5ccc(F)c(Cl)c5Cl)n3)OC[C@]4(C)C(N)=O)cc2o1 [Example 281] | < 200 | < 500 | < 200 |
| COc1cc(C(=O)NC[C@](O)(c2cc3c(c(-c4ccc(F)c(Cl)c4Cl)n2)OC[C@]3(C)C(N)=O)C(F)(F)F)cc2cn(C3CC3)nc12 [Example 65] | < 200 | < 500 | < 200 |

Second part, the molecule after the results:

| EC50 [1] [nM] | EC50 (hMPV A2 TN/94-49 [2]) [nM] | EC50 (hMPV A2 TN/94-49 [3]) [nM] | SMILES |
| --- | --- | --- | --- |
| < 200 | < 500 | < 200 | COc1cc(C(=O)NC[C@@](O)(c2ccccc2)c2cc3c(c(-c4cc(C(F)F)c(F)cc4F)n2)OC[C@]3(C)C(N)=O)cc2oc(C3CC3)nc12 [Example 299] |
| < 200 | < 500 | < 200 | COc1cc(C(=O)NC[C@@](O)(c2cccnc2)c2cc3c(c(-c4cc(Cl)c(F)cc4F)n2)OC[C@]3(C)C(N)=O)cc2cn(C3CC3)nc12 [Example 131] |
| < 200 | < 500 | < 200 | COc1cc(C(=O)NC[C@@](O)(c2cccc(F)c2)c2cc3c(c(-c4ccc(F)c(Cl)c4Cl)n2)OC[C@]3(C)C(N)=O)cc2oc(C3CC3)nc12 [Example 280] |
| < 200 | < 500 | < 200 | COc1cc(C(=O)NC[C@@](O)(c2ccccc2)c2cc3c(c(-c4cc(F)c(F)cc4F)n2)OC[C@]3(C)C(N)=O)cc2cn(C(F)F)nc12 [Example 172] |
| < 200 | < 500 | < 200 | COc1cc(C(=O)NC[C@@](O)(c2ccccc2)c2cc3c(c(-c4cc(Cl)ccc4F)n2)OC[C@]3(C)C(N)=O)cc2cn(C3CC3)nc12 [Example 144] |
| < 200 | < 500 | < 200 | C[C@]1(C(N)=O)COc2c1cc([C@@](O)(CNC(=O)c1ccc3nc(C4CC4)oc3c1)c1ccccc1)nc2-c1cc(Cl)c(F)cc1F [Example 88] |
| < 200 | < 500 | < 200 | C[C@]1(C(N)=O)COc2c1cc([C@@](O)(CNC(=O)c1ccc3nc(C4CC4)oc3c1)c1cccc(F)c1)nc2-c1ccc2c(c1Cl)OC(F)(F)O2 [Example 287] |
| < 200 | < 500 | < 200 | COc1ccc([C@](O)(CNC(=O)c2cc(OC)c3nn(C4CC4)cc3c2)c2cc3c(c(-c4cc(Cl)c(F)cc4F)n2)OC[C@]3(C)C(N)=O)cc1 [Example 165] |
| < 200 | < 500 | < 200 | COc1cc(C(=O)NC[C@@](O)(c2ccccc2)c2cc3c(c(-c4cc(F)c(F)cc4F)n2)OC[C@]3(C)C(N)=O)cc2cn(C3(F)CC3)nc12 [Example 170] |
| < 200 | < 500 | < 200 | COc1cc(C(=O)NC[C@@](O)(c2ccccc2)c2cc3c(c(-c4ccc(F)c(Cl)c4Cl)n2)OC[C@]3(C)C(N)=O)cc2oc(C3CC3)nc12 [Example 278] |
| < 200 | < 500 | < 200 | COc1cc(C(=O)NC[C@@](O)(c2cccc(F)c2)c2cc3c(c(-c4cccc(Cl)c4Cl)n2)OC[C@]3(C)C(N)=O)cc2oc(C3CC3)nc12 [Example 292] |
| < 200 | < 500 | < 200 | COc1cc(C(=O)NC[C@@](O)(c2ccc(F)cc2)c2cc3c(c(-c4cc(Cl)c(F)cc4F)n2)OC[C@]3(C)C(N)=O)cc2cn(C3CC3)nc12 [Example 12] |
| < 200 | < 500 | < 200 | Cc1cnc2c(OC(F)F)cc(C(=O)NC[C@@](O)(c3ccccc3)c3cc4c(c(-c5cc(Cl)c(F)cc5F)n3)OC[C@]4(C)C(N)=O)cc2c1 [Example 183] |
| < 200 | < 500 | < 200 | Cc1nc2c(OC3CC3)cc(C(=O)NC[C@@](O)(c3ccccc3)c3cc4c(c(-c5ccc(F)c(Cl)c5Cl)n3)OC[C@]4(C)C(N)=O)cc2o1 [Example 271] |
| < 200 | < 500 | < 200 | COc1cc(C(=O)NC[C@@](O)(c2ccccc2)c2cc3c(c(-c4cc(Cl)c(F)cc4F)n2)OC[C@]3(C)C(N)=O)cc2cc(C3CC3)nnc12 [Example 90] |
| < 200 | < 500 | < 200 | COc1cc(C(=O)NC[C@@](O)(c2ccccc2)c2cc3c(c(-c4cc(Cl)ccc4F)n2)OC[C@]3(C)C(N)=O)cc2cn(C(F)F)nc12 [Example 145] |
| < 200 | < 500 | < 200 | Cc1cnc2c(OC3CC3)cc(C(=O)NC[C@@](O)(c3ccccc3)c3cc4c(c(-c5cc(Cl)c(F)cc5F)n3)OC[C@]4(C)C(N)=O)cc2c1 [Example 182] |

Source: patent publication US12358921B2, “Antiviral heterocyclic compounds” (priority 2022, dated 2025)
